In article PMC11345766, “Computational Design of Pore-Forming Peptides with Potent Antimicrobial and Anticancer Activities” (Journal of Medicinal Chemistry, 2024):
pIC50: −log10 of the molar value. Ends that are not written are not given here.

Key:
E. coli (E1098) = settings: E1098, 18 h
[1] = system: human red blood cells (HRBCs); settings: read-out: Hemolysis toxicity (IC50); 1 h incubation
Procedure: To investigate the toxicity for normal human cells, all peptides were first screened against human red blood cells (HRBCs) using a hemolysis assay (Table 2 and Figure S4).
Hemolysis toxicity was tested against HRBCs. Blood samples, collected from the university hospital, were centrifuged twice at 700 × g and once at 1000 × g for 8 min at 4 °C to obtain erythrocyte pellets. Supernatants were always discarded, and pellets were resuspended in PBS (the same as the antimicrobial susceptibility assay). The final RBC suspension was 0.5% (v/v). Dilution series was prepared for concentrations 50 to 0.1 μM in a V-bottom 96-well plate, followed by the addition of RBC suspension. […] After 1 h of incubation at 37 °C, the well plate was centrifuged at 1000 × g for 10 min at 4 °C. The supernatant, collected in a flat-bottom well plate, was measured for OD415 using Tecan Microplate Reader Infinite F500.

Substance | MIC (E. coli (E1098)) | pIC50 [1]
KKKKLKKILKKLFQFINQLDNQLQDIKQNK-NH2 [LP1] | 1 µM | 
H-HHHHLKKILKKLFQFINQLDNQLQDIHHHH-OH [LP40] |  | < 4.30
